In patent US7417025B2, “Use of poly-α2,8-sialic acid mimetic peptides to modulate NCAM functions” (Centre National de la Recherche Scientifique, priority 2002, dated 2008):
“Also recorded” adds a separate entry of the source.

Legend:
30H12 antibody = assay: ELISA with peptide-BSA conjugate on 30H12-coated plates; type: binding; details: no competitor, FIG. 12A
From the text: FIG. 12A: ELISA using 30H12 anti-PSA monoclonal antibody-coated plates.
The specificity of the cyclic peptides was investigated in an ELISA assay using plates coated with 30H12 antibody, following the protocol as described above for the competitive ELISA, with the exception that the competitor was omitted.

MenB anti-PSA antibody = assay: Competitive binding to PSA-NCAM expressing cells (MenB)
Experimental: FIGS. 12B, 12C and 12D: competitive binding to PSA-NCAM expressing cells. B: pre-incubation of p65 (1 mM) or p66 (1 mM) with MenB anti-PSA antibody. C: 30H12 anti-PSA antibody without peptide. D: pre-incubation of p65 (1 mM) or p66 (1 mM) with 30H12 anti-PSA antibody.
The specificity of p65 and p66 peptides was tested in a competition assay using anti-PSA antibodies and PSA-NCAM expressing cells. […] The binding specificity was examined in greater detail by testing peptide recognition by another anti-PSA mononclonal antibody (MenB). […] Thus, p65 and p66 mimotopes appear to be specific for a unique (idiotypic) determinant.

[1] = tested on: Mouse dorsal root ganglion explants (E13.5); assay: Dorsal root ganglion explant culture: neurite outgrowth and fasciculation; type: cell-based
Experimental: E13.5 DRGs were dissected out from mice embryos in HBSS medium and seeded on glass coverslips coated with polylysine or with peptides linked to BSA. Explants were cultured in the presence or the absence of the peptides under soluble form (40 μM) in two ml of neurobasal medium (DMEM/Ham's F12, 3:1 (V/V), GIBCO, buffered with 20 mM Hepes), supplemented as described in Faivre-Sarrailh et al., J. Cell. Sci., 1999, 18, 3015-3027 and Chazal et al., J.Neurosci., 2000, 20, 1446-1457.
Fixed DRGs (Dorsal Root ganglia) explants and sections were incubated at 4° C. respectively 2 hr with an anti-neurofilament (SMI-31, dilution 1:800, STERNBERGER MONOCLONALS) and overnight with an anti-PSA antibody (dilution 1:200, Rougon et al, J. Cell. Biol., 1986, 103, 2429-2437). Revelation was performed by 1 hr incubation with the corresponding fluorescent-labeled secondary antibody (Goat anti-mouse IgM or IgG conjugated with texas red, IMMUNOTECH)
After 48 h in culture, explants were examining directly (SVZ) or after overnight fixation with a 4% paraformaldehyde solution in PBS and immunostaining (DRGs). Observation was done using 2, 5×, 5×, 10× and 32× objectives (Axiovert 35M, ZEISS). Images were collected with a video camera (Cool View, PHOTONIC SCIENCE) and analysed using image-processing software (Visiolab1000, BIOCOM). Mean migration distance (calculated on five different experiments, including at least five explants per condition) or mean length of the longest neurite (calculated on two different experiments, including at least eight explants per condition), was the distance in micrometers between the explant edge and the border of the cell migration front. Four measurements were performed for each explant. The significance of the differences between the control and the different experimental conditions was calculated by Student's t test.
Mouse dorsal root ganglion explants (E13.5) were cultured in the presence of p65 and p66 cyclic mimetic peptides, either in soluble form or coated on the microplates as BSA conjugates. Cells cultured in the absence of peptides or in the presence of reverse peptides (coated or in soluble form) were used as controls.

chick retina axons = assay: Intravitreal injection in chick embryo, retinal whole mount: axon fasciculation and guidance in vivo; details: injected into chicken embryo eyes at E3, retina observed at E9
Experimental: The dashed rectangle indicates the area from which photographs were taken. Arrows point toward the optic fissure. Axons of E9 chick retina injected at E3 with the reverse peptide (C,F) or the p65 peptide (D,G,E,H). Arrowheads show examples of axons that leave their fascicle and run perpendicularly to it.
Injections were performed as described in Monnier et al. (Developmental Biology, 2001, 229, 1-14). Briefly, a 2×2 cm window was cut into the shell over E3 chick embryos. One μl of Fast green with 10 mM of p65 or reverse peptide was injected into the right eye vitreous body using a capillary. After a five-days incubation at 37° C., (E8) retinae were dissected, spread onto nitrocellulose filters (MILIPORE), and fixed with 4% paraformaldehyde solution in PBS. Two small DiI (1,1′-dioctadecyl-3,3,3′,3′-tetramethylindocarbocyanine perchlorate) crystals were applied dorsally to the optic fissure. Retinae were stored in the dark at 37° C. for 10 days until the dye reached the axonal growth cones in the fissure, mounted in glycerol:PBS (9:1, v:v) and analysed using confocal microscopy.

[2] = peptide in coated form (BSA conjugate)
[3] = peptide in soluble form (40 μM), versus controls

CSSVTAWTTGCG [p65] was tested, and the “Binding of cyclic peptides to 30H12 antibody in ELISA” value (30H12 antibody) was “highest binding”, the “Recognition of PSA-NCAM by MenB after pre-incubation with peptide” value (MenB anti-PSA antibody; FIG. 12C) was “did not prevent recognition of PSA-NCAM” and the “Antibody specificity of peptide binding (30H12 versus MenB)” value (MenB anti-PSA antibody; in words) was “bind only to 30H12”. For the same sequence, the Fasciculation [1, 2] was “opposite effect on fasciculation”, the Neurite outgrowth [1, 2] was “no effect on neurite outgrowth; also recorded: no significant increase” and the Axonal growth [1, 3] was “significant increase in axonal growth”. For the same sequence, the “Fasciculation of axon bundles” value [1, 3] was “clear defasciculation of axon bundles”, the “Increase of neurite outgrowth compared to the controls” value ([1]; peptide in soluble form, mean length of the longest neurite) was 34% and the “Axon guidance and fasciculation in retina in vivo” value (chick retina axons) was “axons guidance and fasciculation defects”.
